From US7381521B2, “Anti-pathogenic composition useful in blood preservation” (Altachem Pharma Ltd., priority 2001, dated 2008)

How the values were obtained:
human fibroblastic cells = test: Cytotoxicity check of the products on human fibroblastic cells; format: cell-based
Procedure: Cytotoxicity checks are conducted on the products for cellular cultures used in the tests, that is to say the human fibroblastic cells.
The cells are cultivated on a Dulbecco medium enriched with 10% fetal calf serum; at the moment of their use, the cells are washed and the same culture medium is used but without calf serum.
For each product tested or each composition, 10 tubes of cellular culture were used and after inoculation of the product, the tubes were kept under observation for 3 days.
Each product was, in succession, used pure and at dilutions of 10^−1, 10^−2, 10^−3 and added to culture tubes containing 1 ml of nutrient medium in a volume of 0.1 ml.

E. coli ATCC 11229 = test: Test 2 (DGHM), action as a function of disinfection time at 22° C., 2 × 10^9 organisms/ml; format: cell-based, Escherichia coli
Procedure: (§1) Another test was carried out a basis of the following solutions • 100 ml of a 0.1% solution of chlorohexidine digluconate (pH 6); and • 100 ml of a 0.1% solution of Bardac22®.
(§2) The activity of these solutions, alone or in combination, was more particularly tested in respect of Staphylococcus aureus ATCC 6538, Escherichia coli ATCC 11229 and Candida albicans ATCC 10231.
(§3) The tests were conducted in accordance with the procedure described in Chapter I/2.1 and 2.2 of Tichtlinien für die Prüfung und Bewertung chemischer Desinfektionsverfahren der DGHM/Guidelines for Testing and Evaluating Chemical Disinfection Processes of DGHM as at 1.1, 1981.

S. aureus ATCC 6538 = test: Test 2 (DGHM), action as a function of disinfection time at 22° C., 8 × 10^8 organisms/ml; format: cell-based, Staphylococcus aureus
Procedure: as §1, §2, §3

## [H]/N=C(\N/C(=N/[H])NCCCCCCNC(=N)NC(=N)Nc1ccc(Cl)cc1)Nc1ccc(Cl)cc1 [Chlorhexidine, chlorohexidine digluconate, reference compound]
Human fibroblastic cells
  toxicity for the cell cultures: no toxicity
E. coli ATCC 11229; 0.05% vol/vol, 1 min
  growth: +
E. coli ATCC 11229; 0.05% vol/vol, 3 min
  growth: +
E. coli ATCC 11229; 0.05% vol/vol, 5 min
  growth: +
E. coli ATCC 11229; 0.05% vol/vol, 15 min
  growth: +
E. coli ATCC 11229; 0.05% vol/vol, 30 min
  growth: +
E. coli ATCC 11229; 0.05% vol/vol, 60 min
  growth: +
E. coli ATCC 11229; 0.1% vol/vol, 1 min
  growth: +
E. coli ATCC 11229; 0.1% vol/vol, 3 min
  growth: +
E. coli ATCC 11229; 0.1% vol/vol, 5 min
  growth: +
E. coli ATCC 11229; 0.1% vol/vol, 15 min
  growth: +
E. coli ATCC 11229; 0.1% vol/vol, 30 min
  growth: +
E. coli ATCC 11229; 0.1% vol/vol, 60 min
  growth: +
E. coli ATCC 11229; 0.5% vol/vol, 1 min
  growth: +
E. coli ATCC 11229; 0.5% vol/vol, 3 min
  growth: +
E. coli ATCC 11229; 0.5% vol/vol, 5 min
  growth: +
E. coli ATCC 11229; 0.5% vol/vol, 15 min
  growth: +
E. coli ATCC 11229; 0.5% vol/vol, 30 min
  growth: +
E. coli ATCC 11229; 0.5% vol/vol, 60 min
  growth: +
E. coli ATCC 11229; 1% vol/vol, 1 min
  growth: +
E. coli ATCC 11229; 1% vol/vol, 3 min
  growth: +
E. coli ATCC 11229; 1% vol/vol, 5 min
  growth: +
E. coli ATCC 11229; 1% vol/vol, 15 min
  growth: +
E. coli ATCC 11229; 1% vol/vol, 30 min
  growth: +
E. coli ATCC 11229; 1% vol/vol, 60 min
  growth: +
E. coli ATCC 11229; 5% vol/vol, 1 min
  growth: +
E. coli ATCC 11229; 5% vol/vol, 3 min
  growth: +
E. coli ATCC 11229; 5% vol/vol, 5 min
  growth: +
E. coli ATCC 11229; 5% vol/vol, 15 min
  growth: +
E. coli ATCC 11229; 5% vol/vol, 30 min
  growth: −
E. coli ATCC 11229; 5% vol/vol, 60 min
  growth: −
E. coli ATCC 11229; 10% vol/vol, 1 min
  growth: +
E. coli ATCC 11229; 10% vol/vol, 3 min
  growth: +
E. coli ATCC 11229; 10% vol/vol, 5 min
  growth: +
E. coli ATCC 11229; 10% vol/vol, 15 min
  growth: −
E. coli ATCC 11229; 10% vol/vol, 30 min
  growth: −
E. coli ATCC 11229; 10% vol/vol, 60 min
  growth: −
E. coli ATCC 11229; 25% vol/vol, 1 min
  growth: +
E. coli ATCC 11229; 25% vol/vol, 3 min
  growth: +
E. coli ATCC 11229; 25% vol/vol, 5 min
  growth: +
E. coli ATCC 11229; 25% vol/vol, 15 min
  growth: −
E. coli ATCC 11229; 25% vol/vol, 30 min
  growth: −
E. coli ATCC 11229; 25% vol/vol, 60 min
  growth: −
S. aureus ATCC 6538; 0.05% vol/vol, 1 min
  growth: +
S. aureus ATCC 6538; 0.05% vol/vol, 3 min
  growth: +
S. aureus ATCC 6538; 0.05% vol/vol, 5 min
  growth: +
S. aureus ATCC 6538; 0.05% vol/vol, 15 min
  growth: +
S. aureus ATCC 6538; 0.05% vol/vol, 30 min
  growth: +
S. aureus ATCC 6538; 0.05% vol/vol, 60 min
  growth: +
S. aureus ATCC 6538; 0.1% vol/vol, 1 min
  growth: +
S. aureus ATCC 6538; 0.1% vol/vol, 3 min
  growth: +
S. aureus ATCC 6538; 0.1% vol/vol, 5 min
  growth: +
S. aureus ATCC 6538; 0.1% vol/vol, 15 min
  growth: +
S. aureus ATCC 6538; 0.1% vol/vol, 30 min
  growth: +
S. aureus ATCC 6538; 0.1% vol/vol, 60 min
  growth: +
S. aureus ATCC 6538; 0.5% vol/vol, 1 min
  growth: +
S. aureus ATCC 6538; 0.5% vol/vol, 3 min
  growth: +
S. aureus ATCC 6538; 0.5% vol/vol, 5 min
  growth: +
S. aureus ATCC 6538; 0.5% vol/vol, 15 min
  growth: +
S. aureus ATCC 6538; 0.5% vol/vol, 30 min
  growth: +
S. aureus ATCC 6538; 0.5% vol/vol, 60 min
  growth: +
S. aureus ATCC 6538; 1% vol/vol, 1 min
  growth: +
S. aureus ATCC 6538; 1% vol/vol, 3 min
  growth: +
S. aureus ATCC 6538; 1% vol/vol, 5 min
  growth: +
S. aureus ATCC 6538; 1% vol/vol, 15 min
  growth: +
S. aureus ATCC 6538; 1% vol/vol, 30 min
  growth: +
S. aureus ATCC 6538; 1% vol/vol, 60 min
  growth: +
S. aureus ATCC 6538; 5% vol/vol, 1 min
  growth: +
S. aureus ATCC 6538; 5% vol/vol, 3 min
  growth: +
S. aureus ATCC 6538; 5% vol/vol, 5 min
  growth: +
S. aureus ATCC 6538; 5% vol/vol, 15 min
  growth: +
S. aureus ATCC 6538; 5% vol/vol, 30 min
  growth: +
S. aureus ATCC 6538; 5% vol/vol, 60 min
  growth: +
S. aureus ATCC 6538; 10% vol/vol, 1 min
  growth: +
S. aureus ATCC 6538; 10% vol/vol, 3 min
  growth: +
S. aureus ATCC 6538; 10% vol/vol, 5 min
  growth: +
S. aureus ATCC 6538; 10% vol/vol, 15 min
  growth: +
S. aureus ATCC 6538; 10% vol/vol, 30 min
  growth: +
S. aureus ATCC 6538; 10% vol/vol, 60 min
  growth: −
S. aureus ATCC 6538; 25% vol/vol, 1 min
  growth: +
S. aureus ATCC 6538; 25% vol/vol, 3 min
  growth: +
S. aureus ATCC 6538; 25% vol/vol, 5 min
  growth: +
S. aureus ATCC 6538; 25% vol/vol, 15 min
  growth: +
S. aureus ATCC 6538; 25% vol/vol, 30 min
  growth: −
S. aureus ATCC 6538; 25% vol/vol, 60 min
  growth: −
